# From patent US20260355137A1, “NOVEL OPHTHALMIC FORMULATION” (FERTIS INDIA PVT LTD, priority 2022, published 2026)
# “Also recorded” adds a separate entry of the source.
# What was measured:
# Format in all cases: in vivo, New Zealand rabbit
# [1] = test system: cataract induced left eye: lens; assay: Microscopic observations (histopathology) of lens (Table 12)
# Method: (§1) An illustrative ophthalmic formulation for treatment of eye disease is set forth below: The formulations provided herein below are tested in cataract induced New Zealand rabbits, and the results are discussed herein below.
# (§2) Cataract was induced by injecting 0.5% Methyl Cellulose, which is replaced by aqueous humor in the rabbit eye (i.e., 0.2 mL of Aqueous humor was withdrawn and the same 0.2 mL of 0.5% Methyl cellulose was injected as a replacement). Cataract was observed within 3-4 days of 0.5% Methyl cellulose replacement. Cataract induction was performed to left eye and right eye was served as a control.
# (§3) All surviving animals were euthanized on Day 29 by overdose of Thiopental Sodium. Before scheduled euthanasia, the animals were fasted overnight (water allowed) and terminal body weights were recorded. Animals were subjected to detailed macroscopic observation during necropsy. Both right (untreated/uninduced) and left (treated/induced) eyes were collected and cornea and lens were separated, preserved in Davidson fluid. Cornea and lens selected for histopathological evaluation were processed, embedded and sections were cut at 3-5 μm thickness, Sections were placed on grease-free slides and stained with Hematoxylin and Eosin. A 5-step grading system of minimum, mild, moderate, marked and severe will be used to rank microscopic findings for comparison among groups. Data was compiled based on incidences and severity of changes.
# [2] = test system: intraocular pressure, glaucoma-induced left eye; assay: Intraocular pressure, tonometer (Table 17); conditions: for Intraocular pressure, Mean, Left eye: Left (induced) eye; for Intraocular pressure, Mean, Left eye / Intraocular pressure, Mean, Right eye: male, 6 animals/group
# Method: as §2
# (§4) Rabbits were observed by ophthalmoscope and slit lamp once in three days for cataract confirmation. Intraocular pressure was measured with a tonometer once in three days for the confirmation of glaucoma.
# (§5) Intra-ocular pressures were measured in animals in each group once in three days using a Tonometer. The readings were documented for each eye separately.
# [3] = test system: cataract and intraocular pressure/glaucoma in induced rabbit eye; assay: Overall efficacy in cataract reduction and reducing intraocular pressure
# Method: as §1
# (§6) The following preclinical studies were conducted in rabbit model to test the efficacy of various active ingredients.
# as §2, §4
# [4] = test system: cataract induced left eye; assay: Macroscopic examination, cataract induced left eye (cinnamic acid derivatives, Tables 10-11); conditions: for No Abnormality Detected, incidence: animals affected/6
# Method: as §1, §2, §4
# [5] = test system: cataract induced left eye: lens and cornea; assay: Microscopic examination (histopathology) of lens and cornea (Table 16)
# Method: as §1, §2, §3
# [6] = test system: cataract induced left eye; assay: Macroscopic examination, cataract induced left eye (Tables 14-15)
# Method: as §1, §2, §4
# [7] = test system: intraocular pressure, induced left eye; assay: Intraocular pressure, tonometer (Table 13); set-up: unit not given beside the values; conditions: left eye induced/treated
# Method: as §2, §4, §5
# [8] = test system: intraocular pressure, glaucoma-induced left eye; assay: Intraocular pressure, tonometer (Table 9); conditions: 0.5%, Table 9 G5 group
# Method: as §2, §4
# (§7) All test formulations provided as above were administered topically as a therapeutic treatment. A total of 100 μL/Rabbit of placebo or Rosmarinic acid formulations (F1, F2, F3 and F4) were instilled in the 50 μL/eye (left) in two divided doses for 28 days
# [9] = test system: cataract induced left eye: lens and cornea; assay: Microscopic observations (histopathology) of lens and cornea (Tables 4-8); conditions: 0.5% rosmarinic acid, Table 8, G5 group
# Method: as §1, §2, §7, §3
# [10] = test system: cataract induced New Zealand rabbits (left eye); assay: Macroscopic observations, cataract induced left eye (study of rosmarinic acid formulations, Tables 2-3); conditions: ocular 100 μL/rabbit, 28 days, F1 0.25%, F2 0.5%, F3 1.0% rosmarinic acid each with N-acetyl carnosine, F4 0.5% without
# Method: as §1, §6, §2, §4
# Test Item formulations were administered through ocular route. Ocular route has been chosen as it is the intended therapeutic route of administration in humans.
# All test formulations provided as above were administered topically as a therapeutic treatment. A total of 100 μL/Rabbit of placebo or Rosmarinic acid formulations (F1, F2, F3 and F4) were instilled in the 50 μL/eye (left) in two divided doses for 28 days […]
# [11] = left eye (cataract induced), lens
# [12] = left eye (cataract induced), lens, number of animals
# [13] = second study, 0.5% rosmarinic acid (G2), 0.25% caffeic acid (G6)
# [14] = left eye (cataract induced), macroscopic
smiles,measurement,setting,value
O=C(O)/C=C/c1ccc(O)c(O)c1 [Caffeic acid],"histopathological findings, lens (in words)","[1]; Table 12, G2 0.5% rosmarinic acid, G6 0.25% caffeic acid",a higher incidence of lenticular degeneration
same,"Within Normal Histological Limits, incidence",[1]; left eye (cataract induced),0/6
same,"Epithelial proliferation, incidence",[1]; [11],3/6
same,"Epithelial proliferation: Absent, incidence",[1]; [11],3/6
same,"Lenticular Degeneration, incidence",[1]; [11],6/6
same,"Liquefaction, incidence",[1]; [11],4/6
same,"Liquefaction: Absent, incidence",[1]; [11],2/6
same,"Epithelial proliferation: Mild, incidence",[1]; [12],1
same,"Epithelial proliferation: Minimal, incidence",[1]; [12],1
same,"Epithelial proliferation: Moderate, incidence",[1]; [12],1
same,"Liquefaction: Mild, incidence",[1]; [12],1
same,"Liquefaction: Minimal, incidence",[1]; [12],2
same,"Liquefaction: Moderate, incidence",[1]; [12],1
same,"Intraocular pressure, Mean, Left eye",[2]; Day 3,41.50 mmHg
same,"Intraocular pressure, Mean, Left eye",[2]; Day 6,23.89 mmHg
same,"Intraocular pressure, Mean, Left eye",[2]; Day 9,21.61 mmHg
same,"Intraocular pressure, Mean, Left eye",[2]; Day 12,25.33 mmHg
same,"Intraocular pressure, Mean, Left eye",[2]; Day 15,25.11 mmHg
same,"Intraocular pressure, Mean, Left eye",[2]; Day 18,29.56 mmHg
same,"Intraocular pressure, Mean, Left eye",[2]; Day 21,29.94 mmHg
same,"Intraocular pressure, Mean, Left eye",[2]; Day 25,24.78 mmHg
same,"Intraocular pressure, Mean, Left eye","[2]; Day 28, ↓↓ = Significantly low at P ≤ 0.01 compared to respective control",21.11↓↓ mmHg
same,"Intraocular pressure, Mean, Right eye",[2]; Day 3,15.83 mmHg
same,"Intraocular pressure, Mean, Right eye",[2]; Day 6,19.11 mmHg
same,"Intraocular pressure, Mean, Right eye",[2]; Day 9,16.61 mmHg
same,"Intraocular pressure, Mean, Right eye",[2]; Day 12,16.94 mmHg
same,"Intraocular pressure, Mean, Right eye",[2]; Day 15,14.61 mmHg
same,"Intraocular pressure, Mean, Right eye",[2]; Day 18,15.44 mmHg
same,"Intraocular pressure, Mean, Right eye",[2]; Day 21,15.28 mmHg
same,"Intraocular pressure, Mean, Right eye",[2]; Day 25,17.17 mmHg
same,"Intraocular pressure, Mean, Right eye",[2]; Day 28,17.11 mmHg
same,intraocular pressure following treatment,"[2]; induced left eye, 28-day treatment regimen, 0.5%",21.11 mmHg
same,mean intraocular pressure initially measured,"[2]; induced left eye, six animals, within three days",41.5 mmHg
same,overall efficacy (in words),[3]; [13],showed promise
same,overall efficacy (in words),"[3]; second study, 0.5% rosmarinic acid (G2), 0.25% caffeic acid (G6), listed as caffeic acid",shown to be the best
same,overall efficacy / order of efficacy (in words),"[3]; third study, cataract reduction and reducing intraocular pressure, highest to lowest","showed the best results, with remarkable efficacy not only in cataract reduction but also in addressing glaucoma; also recorded: Caffeic Acid G3>Epigallocatechin Gallate G4>Encapsulated Feruloyl Tyramine G5>Ferulic Acid G6>Rosmarinic Acid+Caffeic Acid G2"
same,"Opacity, cornea and red discoloured, with diffuse opacity: Moderate, incidence",[4]; [14],1/6
same,"Opacity, cornea, diffuse: Mild, incidence",[4]; [14],1/6
same,"Opacity, cornea, diffuse: Minimal, incidence",[4]; [14],1/6
same,"Opacity, cornea, diffuse: Moderate, incidence",[4]; [14],1/6
same,"No Abnormality Detected, incidence",[4]; [14],1/6
same,"cataract efficacy, histopathology (in words)",[5]; Table 16,"fully regenerated in 5 out of 6 animals, from severe degeneration to a minimal scale; also recorded: One animal exhibited complete recovery"
same,"Lens, Liquefaction: Minimal, incidence",[5]; left eye induced,5/6
same,"No abnormality (histopathology), incidence",[5]; left eye induced,1/6
same,"cataract efficacy, macroscopic (in words)",[6]; Table 15,"all 6 animals were completely recovered, and no cataract was observed at all"
same,"No Abnormality Detected, incidence",[6]; [14],6/6
same,"Intraocular Pressure, mean",[7]; Day 3,90.35
same,"Intraocular Pressure, mean",[7]; Day 6,63.22
same,"Intraocular Pressure, mean",[7]; Day 9,62.17
same,"Intraocular Pressure, mean",[7]; Day 12,65.93
same,"Intraocular Pressure, mean",[7]; Day 15,45.45
same,"Intraocular Pressure, mean",[7]; Day 18,45.73
same,"Intraocular Pressure, mean",[7]; Day 21,41.50
same,"Intraocular Pressure, mean",[7]; Day 24,38.93
same,"Intraocular Pressure, mean",[7]; Day 27,32.12
same,"Intraocular Pressure, mean",[7]; Day 30,30.78
same,"Intraocular Pressure, mean",[7]; Day 33,26.60↓↓
O=C(/C=C/c1ccc(O)c(O)c1)O[C@H](Cc1ccc(O)c(O)c1)C(=O)O [Rosmarinic acid],"Within Normal Histological Limits, incidence",[1]; left eye (cataract induced),0/6
same,"Epithelial proliferation, incidence",[1]; [11],2/6
same,"Epithelial proliferation: Absent, incidence",[1]; [11],4/6
same,"Lenticular Degeneration, incidence",[1]; [11],4/6
same,"Liquefaction, incidence",[1]; [11],4/6
same,"Liquefaction: Absent, incidence",[1]; [11],2/6
same,"Epithelial proliferation: Marked, incidence",[1]; [12],1
same,"Epithelial proliferation: Minimal, incidence",[1]; [12],1
same,"Liquefaction: Marked, incidence",[1]; [12],1
same,"Liquefaction: Minimal, incidence",[1]; [12],3
same,intraocular pressure following treatment,[8]; 28-day treatment regimen,20.06 mmHg
same,intraocular pressure initially measured,[8]; within six days,59.72 mmHg
same,overall efficacy (in words),"[3]; 0.5% rosmarinic acid, G5 of first study","demonstrates its efficacy not only in preventing lens liquefaction, epithelial proliferation, and corneal edema and treating cataract but also in reducing intraocular pressure"
same,overall efficacy (in words),[3]; [13],shown to be the best; also recorded: superior efficacy
same,macroscopic examination (in words),"[4]; Table 11, G2 0.5% rosmarinic acid, G6 0.25% caffeic acid","minimal corneal opacity in some animals, with no abnormalities in one"
same,"Opacity, cornea and red discoloured, with diffuse opacity: Minimal, incidence",[4]; [14],1/6
same,"Opacity, cornea, diffuse: Mild, incidence",[4]; [14],1/6
same,"Opacity, cornea, diffuse: Minimal, incidence",[4]; [14],3/6
same,"No Abnormality Detected, incidence",[4]; [14],1/6
same,corneal edema (in words),[9],five animals' corneal edema was within histological limits and one animal with minimal corneal edema
same,epithelial proliferation in lens (in words),[9],In five animals' epithelial proliferation in lens was within histological limits; also recorded: Only one animal displayed minimal epithelial proliferation
same,liquefaction in the lens (in words),[9],"in four animals, liquefaction in the lens is within histological limits; also recorded: in two animals, minimal liquefaction was observed"
same,"Intraocular Pressure, mean",[7]; Day 3,83.15
same,"Intraocular Pressure, mean",[7]; Day 6,77.55
same,"Intraocular Pressure, mean",[7]; Day 9,78.72
same,"Intraocular Pressure, mean",[7]; Day 12,66.83
same,"Intraocular Pressure, mean",[7]; Day 15,48.83
same,"Intraocular Pressure, mean",[7]; Day 18,48.48
same,"Intraocular Pressure, mean",[7]; Day 21,46.77
same,"Intraocular Pressure, mean",[7]; Day 24,44.55
same,"Intraocular Pressure, mean",[7]; Day 27,42.62
same,"Intraocular Pressure, mean",[7]; Day 30,23.27
same,"Intraocular Pressure, mean",[7]; Day 33,18.45↓↓
same,Macroscopic inference (Left Eye),[10],no abnormalities found in all the 6 animals
